In patent US8668942B2, “Skin anti-oxidant enhancing formulation and associated method” (Fishrock Laboratories, Inc., priority 2012, dated 2014):

Columns and labels:
[1] = Total Oxygen radical Scavenging Capacity (TOSC) assay; type: biochemical; details: for total antioxidant activities, times higher than Trolox: in momordica cochinchinensis aril; for antioxidant capacity, higher than Trolox: in the gac oil
Protocol: (§1) Antioxidant capacities were assessed by the overall abilities of the compounds to suppress peroxyl radicals generated from the thermal homolysis of 2,2′-azobis-amidinopropane. Stock solutions of all samples were diluted 1/100 and 1/1000. […] However, at a lower concentration (dilution of 1/1000), the gac aril provided the highest peroxyl radical-scavenging capacity, 1.8 and 1.3 times as much as β-carotene and lycopene, respectively (FIG. 1b).
Using the TOSC method, it was apparent that total antioxidant activities of beta-carotene and lycopene in momordica cochinchinensis aril were high (2 times higher than Trolox), an analogue of Vitamin E commonly used a gold standard. The comparative TOSC values (cTOSC) of gac (Redmelon™) aril maintains 5.4 times greater than Trolox. […] The results are summarized below in the following table

[2] = Oxygen Radical Absorbance capacity (ORAC) assay; type: biochemical; details: 1/100 dilution of stock solutions; FIG. 1a
Protocol: Those figures depict graphical comparison of the antioxidant values of momordica cochichinchinensis (gac) aril, β-carotene, and lycopene using […] (ORAC) assay, ORAC values were obtained using a Trolox standard linear regression line.
as §1

Row | SMILES | total antioxidant activities, times higher than Trolox ([1]; relative to Trolox) [times] | antioxidant capacity, higher than Trolox ([1]; relative to Trolox) [%] | peroxyl radical scavenging capacity (rTOSC), times greater than Trolox ([1]; relative to Trolox) [times] | ability to scavenge peroxyl radicals, times as much as the Redmelon™ aril [2] [times] | ability to scavenge peroxyl radicals, times as much as β-carotene [2] [times] | cTOSC ([1]; comparative TOSC value) | rTOSC ([1]; peroxyl radical scavenging capacity)
1 | CC(C)=CCC/C(C)=C/C=C/C(C)=C/C=C/C(C)=C/C=C/C=C(C)/C=C/C=C(C)/C=C/C=C(\C)CCC=C(C)C [lycopene] | 2 | 50 | 24 | 1.4 | 2.4 | – | –
2 | CC1=C(/C=C/C(C)=C/C=C/C(C)=C/C=C/C=C(C)/C=C/C=C(C)/C=C/C2=C(C)CCCC2(C)C)C(C)(C)CCC1 [beta-carotene] | 2 | 50 | – | – | – | – | –
3 | Cc1c(C)c2c(c(C)c1O)CCC(C)(C(=O)O)O2 (stereo not drawn) [Trolox] | – | – | – | – | – | 1.00 | 4.51
